Data reported in the NIST ThermoML archive (doi:10.1016/j.jct.2016.02.009).
Numbers after ± are expanded uncertainties.

Assay: molar heat capacity at constant pressure
Settings: 101.33 kPa, Crystal 2, Small (less than 1 g) adiabatic calorimetry

CCCCCCCCCCCCCCCCn1cc[n+](C)c1.O=S(=O)([N-]S(=O)(=O)C(F)(F)F)C(F)(F)F
Settings | molar heat capacity at constant pressure [J/K/mol]
5 K | 3.58 ± 0.11
5.4 K | 4.43 ± 0.12
5.7 K | 5.11 ± 0.14
6.07 K | 6 ± 0.16
6.51 K | 7.15 ± 0.18
7.03 K | 8.58 ± 0.22
7.55 K | 10.13 ± 0.25
8.08 K | 11.79 ± 0.29
8.61 K | 13.56 ± 0.33
9.15 K | 15.43 ± 0.37
9.69 K | 17.38 ± 0.41
10 K | 18.51 ± 0.36
10.24 K | 19.41 ± 0.31
10.84 K | 21.73 ± 0.34
11.53 K | 24.47 ± 0.38
12.23 K | 27.33 ± 0.42
12.92 K | 30.31 ± 0.46
13.62 K | 33.36 ± 0.5
14.33 K | 36.54 ± 0.54
15 K | 39.66 ± 0.56
15.04 K | 39.85 ± 0.58
15.87 K | 43.67 ± 0.62
16.8 K | 48.11 ± 0.68
17.74 K | 52.48 ± 0.73
18.67 K | 56.86 ± 0.77
19.62 K | 61.3 ± 0.82
20 K | 63.15 ± 0.61
20.86 K | 67.23 ± 0.64
22.4 K | 74.52 ± 0.67
23.97 K | 81.98 ± 0.71
25 K | 86.78 ± 0.72
25.53 K | 89.27 ± 0.73
27.13 K | 96.62 ± 0.75
28.72 K | 103.9 ± 0.8
30 K | 109.7 ± 0.6
30.29 K | 111.1 ± 0.7
32.02 K | 118.8 ± 0.7
33.92 K | 126.8 ± 0.7
35 K | 131.4 ± 0.7
35.82 K | 134.8 ± 0.8
37.72 K | 142.5 ± 0.8
39.62 K | 150 ± 0.9
40 K | 151.7 ± 0.9
41.61 K | 158 ± 0.9
43.71 K | 166.2 ± 0.9
45 K | 171.3 ± 1
45.8 K | 174.3 ± 1
47.91 K | 182.4 ± 1
50 K | 190 ± 1.1
50.02 K | 190.2 ± 1.1
52.13 K | 197.8 ± 1.1
54.23 K | 205.2 ± 1.1
56.35 K | 212.4 ± 1.2
58.48 K | 219.5 ± 1.2
60 K | 224.6 ± 1.3
60.6 K | 226.5 ± 1.3
62.72 K | 233.3 ± 1.3
64.85 K | 240.1 ± 1.3
66.98 K | 246.6 ± 1.4
69.1 K | 253.2 ± 1.4
70 K | 255.9 ± 1.4
71.33 K | 259.9 ± 1.4
73.67 K | 266.6 ± 1.5
76.02 K | 273.4 ± 1.5
78.38 K | 280 ± 1.5
80 K | 284.5 ± 1.5
80.57 K | 286.3 ± 1.6
80.73 K | 286.6 ± 1.6
82.48 K | 291.2 ± 1.6
83.09 K | 292.8 ± 1.6
84.4 K | 296.1 ± 1.6
86.33 K | 301.2 ± 1.7
88.27 K | 306.3 ± 1.7
90 K | 310.8 ± 1.6
90.22 K | 311.2 ± 1.6
92.18 K | 316.2 ± 1.6
94.15 K | 321.1 ± 1.7
96.13 K | 326.1 ± 1.7
98.11 K | 331 ± 1.7
100 K | 335.5 ± 1.7
100.1 K | 335.8 ± 1.7
102.15 K | 340.8 ± 1.8
104.27 K | 345.7 ± 1.8
106.4 K | 350.6 ± 1.8
108.54 K | 355.4 ± 1.8
110 K | 358.8 ± 1.8
110.68 K | 360.3 ± 1.9
112.83 K | 365 ± 1.9
114.99 K | 369.8 ± 1.9
117.15 K | 374.5 ± 1.9
119.31 K | 379.2 ± 1.9
120 K | 380.5 ± 1.9
121.48 K | 383.7 ± 2
123.65 K | 388.2 ± 2
125.82 K | 392.8 ± 2
128 K | 397.3 ± 2
130 K | 401.4 ± 2
130.17 K | 401.7 ± 2.1
132.35 K | 406.2 ± 2.1
134.53 K | 410.6 ± 2.1
136.71 K | 415 ± 2.1
138.9 K | 419.3 ± 2.1
140 K | 421.7 ± 2.2
141.08 K | 423.7 ± 2.2
143.27 K | 428.1 ± 2.2
145.46 K | 432.5 ± 2.2
147.65 K | 436.9 ± 2.2
149.84 K | 441.2 ± 2.2
150 K | 441.5 ± 2.3
152.03 K | 445.6 ± 2.3
154.22 K | 449.8 ± 2.3
156.4 K | 454.1 ± 2.3
158.59 K | 458.5 ± 2.3
160 K | 461.2 ± 2.3
160.78 K | 462.8 ± 2.4
162.97 K | 467.2 ± 2.4
165.16 K | 471.4 ± 2.4
167.34 K | 475.7 ± 2.4
169.53 K | 479.8 ± 2.4
170 K | 480.8 ± 2.4
171.71 K | 484.1 ± 2.5
173.9 K | 488.4 ± 2.5
176.08 K | 492.8 ± 2.5
178.26 K | 497.1 ± 2.5
180 K | 500.5 ± 2.5
180.45 K | 501.5 ± 2.5
182.63 K | 505.9 ± 2.6
184.82 K | 510.1 ± 2.6
187 K | 514.3 ± 2.6
189.17 K | 518.6 ± 2.6
190 K | 520.4 ± 2.6
191.35 K | 523.1 ± 2.6
193.52 K | 527.5 ± 2.7
195.69 K | 531.7 ± 2.7
197.86 K | 536.3 ± 2.7
200 K | 540.8 ± 2.8
200.02 K | 540.9 ± 2.7
202.25 K | 545.6 ± 2.8
204.54 K | 550.5 ± 2.8
206.82 K | 555.5 ± 2.8
209.11 K | 560.4 ± 2.8
210 K | 562.3 ± 2.8
211.39 K | 565.4 ± 2.9
213.67 K | 570.5 ± 2.9
215.95 K | 575.6 ± 2.9
218.21 K | 580.9 ± 2.9
220 K | 585 ± 2.9
220.48 K | 586.3 ± 3
222.74 K | 591.8 ± 3
225 K | 597.1 ± 3
227.25 K | 602.4 ± 3
229.5 K | 607.7 ± 3.1
230 K | 609.3 ± 3
231.74 K | 613.5 ± 3.1
233.97 K | 619.4 ± 3.1
236.21 K | 625.3 ± 3.1
238.43 K | 631.2 ± 3.2
